Test results: ChEMBL document CHEMBL6092193, “Identification of furo[2,3-d]pyrimidin-4-ylsulfanyl-1,3,4-thiadiazole derivatives as novel FLT3-ITD inhibitors” (Eur J Med Chem, 2024)
Calls of active or inactive are those of the source. No cut-off for these calls is given here.

What was measured:
BaF3 [1] = experiment: cells; conditions: Mus musculus, BaF3, 72 h
MV4-11 [2] = experiment: Induction of cell cycle arrest in human MV4-11 cells assessed as proportion of cells at S phase at 400 nM incubated for 24 hrs by PI staining based flow cytometry (reference value: 25.97%); assay type: functional
HL-60 [3] = experiment: Induction of cell cycle arrest in human HL-60 cells assessed as proportion of cells at G1 phase at 3.2 nM incubated for 24 hrs by PI staining based flow cytometry (reference value: 49.36%); assay type: functional
[4] = biological target: Receptor-type tyrosine-protein kinase FLT3 (Homo sapiens) (UniProt P36888); experiment: Inhibition of FLT3 in human MV4-11 cells assessed as inhibition of FLT3 autophosphorylation at Tyr589/591 residues incubated for 1 hr by immunoblot analysis; assay type: cell-based; conditions: dose lower […], dose upper 2000.0 nM
HL-60 [5] = experiment: cells; conditions: Homo sapiens, HL-60, 72 h
Description: Antiproliferative activity against human HL-60 cells assessed as inhibition of cell growth incubated for 72 hrs by resazurin dye based fluorescence analysis

MV4-11 [6] = assay type: functional, Homo sapiens; conditions: dose 400 nM; time 24 hrs
MOLM-13 = experiment: cells; conditions: Homo sapiens, MOLM-13, 72 h
MV4-11 [7] = experiment: Induction of cell cycle arrest in human MV4-11 cells assessed as proportion of cells at S phase at 80 nM incubated for 24 hrs by PI staining based flow cytometry (reference value: 25.97%); assay type: functional
BaF3 [8] = experiment: cells; conditions: Mus musculus, BaF3, 72 h; remark: listed apart in the source
HL-60 [9] = experiment: Induction of cell cycle arrest in human HL-60 cells assessed as proportion of cells at S phase at 2000 nM incubated for 24 hrs by PI staining based flow cytometry (reference value: 36.12%); assay type: functional
[10] = test system: Receptor-type tyrosine-protein kinase FLT3 (Homo sapiens), P36888 [UNDEFINED MUTATION]; experiment: Inhibition of FLT3-ITD mutant (unknown origin) expressed in mouse BaF3 cells assessed as inhibition of FLT3 autophosphorylation at Tyr589/591 residues at 16 to 2000 nM incubated for 2 hrs by immunoblot analysis; assay type: cell-based; conditions: dose lower […], dose upper 2000.0 nM
HL-60 [11] = experiment: Induction of cell cycle arrest in human HL-60 cells assessed as proportion of cells at G2/M phase at 3.2 nM incubated for 24 hrs by PI staining based flow cytometry (reference value: 14.52%); assay type: functional
MV4-11 [12] = assay type: functional, Homo sapiens; conditions: dose 3.2 nM; time 24 hrs
[13] = test system: Receptor-type tyrosine-protein kinase FLT3 (Homo sapiens), P36888 [UNDEFINED MUTATION]; experiment: Inhibition of FLT3-ITD mutant (unknown origin) expressed in mouse BaF3 cells assessed as inhibition of ERK1/2 phosphorylation at Thr202/Tyr204 residues at 16 to 2000 nM incubated for 2 hrs by immunoblot analysis; assay type: cell-based; conditions: dose lower […], dose upper 2000.0 nM
Kasumi 1 = experiment: cells; conditions: Homo sapiens, Kasumi 1, 72 h
Description: Antiproliferative activity against human Kasumi 1 cells harboring KIT N822K mutant assessed as inhibition of cell growth incubated for 72 hrs by resazurin dye based fluorescence analysis

[14] = test system: Receptor-type tyrosine-protein kinase FLT3 (Homo sapiens), P36888 [UNDEFINED MUTATION]; assay type: cell-based; conditions: BaF3, dose lower […], dose upper 2000.0 nM, time 2.0 hrs
MV4-11 [15] = experiment: Induction of cell cycle arrest in human MV4-11 cells assessed as proportion of cells at G2/M phase at 16 nM incubated for 24 hrs by PI staining based flow cytometry (reference value: 10%); assay type: functional
MV4-11 [16] = experiment: Induction of cell cycle arrest in human MV4-11 cells assessed as proportion of cells at subG1 phase at 2000 nM incubated for 24 hrs by PI staining based flow cytometry (reference value: 10.44%); assay type: functional
HL-60 [17] = experiment: Induction of cell cycle arrest in human HL-60 cells assessed as proportion of cells at G1 phase at 2000 nM incubated for 24 hrs by PI staining based flow cytometry (reference value: 49.36%); assay type: functional
MV4-11 [18] = experiment: Induction of cell cycle arrest in human MV4-11 cells assessed as proportion of cells at G2/M phase at 400 nM incubated for 24 hrs by PI staining based flow cytometry (reference value: 10%); assay type: functional
BaF3 [19] = experiment: cells; conditions: Mus musculus, BaF3, 72 h; remark: listed apart in the source
Description: Antiproliferative activity against mouse BaF3 cells assessed as inhibition of cell growth incubated for 72 hrs by resazurin dye based fluorescence analysis

[20] = biological target: Receptor-type tyrosine-protein kinase FLT3 (Homo sapiens) (UniProt P36888); experiment: Inhibition of FLT3 in human MV4-11 cells assessed as inhibition of STAT5 phosphorylation at Tyr694 residue incubated for 1 hr by immunoblot analysis; assay type: cell-based; conditions: dose lower […], dose upper 2000.0 nM
MV4-11 [21] = experiment: Induction of cell cycle arrest in human MV4-11 cells assessed as proportion of cells at G2/M phase at 2000 nM incubated for 24 hrs by PI staining based flow cytometry (reference value: 10%); assay type: functional
HL-60 [22] = experiment: Induction of cell cycle arrest in human HL-60 cells assessed as proportion of cells at S phase at 16 nM incubated for 24 hrs by PI staining based flow cytometry (reference value: 36.12%); assay type: functional
HL-60 [23] = experiment: Induction of cell cycle arrest in human HL-60 cells assessed as proportion of cells at G2/M phase at 2000 nM incubated for 24 hrs by PI staining based flow cytometry (reference value: 14.52%); assay type: functional
MV4-11 [24] = experiment: Induction of cell cycle arrest in human MV4-11 cells assessed as proportion of cells at subG1 phase at 80 nM incubated for 24 hrs by PI staining based flow cytometry (reference value: 10.44%); assay type: functional
MV4-11 [25] = assay type: functional, Homo sapiens; conditions: dose 16 nM; time 24 hrs
[26] = test system: Receptor-type tyrosine-protein kinase FLT3 (Homo sapiens), P36888 [UNDEFINED MUTATION]; experiment: Inhibition of FLT3-ITD mutant (unknown origin) expressed in mouse BaF3 cells assessed as inhibition of STAT5 phosphorylation at Tyr694 residue at 16 to 2000 nM incubated for 2 hrs by immunoblot analysis; assay type: cell-based; conditions: dose lower […], dose upper 2000.0 nM
HL-60 [27] = experiment: Induction of cell cycle arrest in human HL-60 cells assessed as proportion of cells at G2/M phase at 400 nM incubated for 24 hrs by PI staining based flow cytometry (reference value: 14.52%); assay type: functional
MV4-11 [28] = assay type: functional, Homo sapiens; conditions: dose 2000 nM; time 24 hrs
MV4-11 [29] = experiment: Induction of cell cycle arrest in human MV4-11 cells assessed as proportion of cells at subG1 phase at 3.2 nM incubated for 24 hrs by PI staining based flow cytometry (reference value: 10.44%); assay type: functional
HL-60 [30] = experiment: Induction of cell cycle arrest in human HL-60 cells assessed as proportion of cells at G2/M phase at 16 nM incubated for 24 hrs by PI staining based flow cytometry (reference value: 14.52%); assay type: functional
HL-60 [31] = experiment: Induction of cell cycle arrest in human HL-60 cells assessed as proportion of cells at subG1 phase at 3.2 nM incubated for 24 hrs by PI staining based flow cytometry (reference value: 6.94%); assay type: functional
[32] = biological target: Receptor-type tyrosine-protein kinase FLT3 (Homo sapiens) (UniProt P36888); experiment: Inhibition of FLT3 in human MV4-11 cells assessed as inhibition of ERK1/2 phosphorylation at Thr202/Tyr204 residues incubated for 1 hr by immunoblot analysis; assay type: cell-based; conditions: dose lower […], dose upper 2000.0 nM
[33] = test system: Receptor-type tyrosine-protein kinase FLT3 (Homo sapiens), P36888 [UNDEFINED MUTATION]; assay type: cell-based; conditions: BaF3, dose lower […], dose upper 2000.0 nM, time 2.0 hrs; remark: listed apart in the source
MV4-11 [34] = experiment: Induction of cell cycle arrest in human MV4-11 cells assessed as proportion of cells at S phase at 16 nM incubated for 24 hrs by PI staining based flow cytometry (reference value: 25.97%); assay type: functional
MV4-11 [35] = experiment: Induction of cell cycle arrest in human MV4-11 cells assessed as proportion of cells at subG1 phase at 16 nM incubated for 24 hrs by PI staining based flow cytometry (reference value: 10.44%); assay type: functional
MV4-11 [36] = experiment: Induction of cell cycle arrest in human MV4-11 cells assessed as proportion of cells at G2/M phase at 80 nM incubated for 24 hrs by PI staining based flow cytometry (reference value: 10%); assay type: functional

Chain of Receptor-type tyrosine-protein kinase FLT3 (Homo sapiens), P36888 [UNDEFINED MUTATION] (P36888 whole entry, looked up, change not shown): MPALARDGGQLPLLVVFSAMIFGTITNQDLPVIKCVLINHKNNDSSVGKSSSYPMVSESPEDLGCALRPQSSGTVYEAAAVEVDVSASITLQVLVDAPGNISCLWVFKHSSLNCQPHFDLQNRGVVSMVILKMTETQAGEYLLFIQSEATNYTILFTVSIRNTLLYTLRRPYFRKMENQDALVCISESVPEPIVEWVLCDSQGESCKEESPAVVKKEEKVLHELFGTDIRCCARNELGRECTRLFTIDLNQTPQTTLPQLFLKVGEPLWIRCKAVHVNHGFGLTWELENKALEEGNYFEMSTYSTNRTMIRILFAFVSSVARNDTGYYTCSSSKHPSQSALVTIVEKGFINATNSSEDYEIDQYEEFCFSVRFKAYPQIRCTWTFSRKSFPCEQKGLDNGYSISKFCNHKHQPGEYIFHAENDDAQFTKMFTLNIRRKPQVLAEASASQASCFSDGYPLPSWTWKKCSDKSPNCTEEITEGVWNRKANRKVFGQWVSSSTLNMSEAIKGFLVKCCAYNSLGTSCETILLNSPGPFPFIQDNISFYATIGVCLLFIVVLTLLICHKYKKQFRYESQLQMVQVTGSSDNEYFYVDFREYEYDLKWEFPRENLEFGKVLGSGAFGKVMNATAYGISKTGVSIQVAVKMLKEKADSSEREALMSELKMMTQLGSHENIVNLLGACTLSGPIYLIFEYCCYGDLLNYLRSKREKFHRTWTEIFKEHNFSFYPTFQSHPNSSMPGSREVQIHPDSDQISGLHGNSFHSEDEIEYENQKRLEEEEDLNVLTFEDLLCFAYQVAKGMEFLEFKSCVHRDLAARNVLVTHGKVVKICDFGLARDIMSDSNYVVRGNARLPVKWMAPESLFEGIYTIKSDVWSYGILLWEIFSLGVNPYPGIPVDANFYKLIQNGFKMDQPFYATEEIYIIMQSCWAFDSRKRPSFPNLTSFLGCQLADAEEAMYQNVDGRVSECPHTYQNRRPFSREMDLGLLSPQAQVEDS
Chain of Receptor-type tyrosine-protein kinase FLT3 (Homo sapiens) (P36888 whole entry): as the sequence (P36888 whole entry, looked up, change not shown) above

## COc1ccc(NC(=O)Nc2nnc(Sc3ncnc4oc(-c5ccccc5)cc34)s2)cc1
BaF3 [1]
  GI50: 54 nM
MV4-11 [2]
  Activity: 4.48%
HL-60 [3]
  Activity: 49.95%
[4]
  inhibition: Dose-dependent-effect
HL-60 [5]
  GI50: > 10 µM
MV4-11 [6]
  Activity: 94.09%
MOLM-13
  GI50: 63 nM
MV4-11 [7]
  Activity: 3.85%
BaF3 [8]
  GI50: 277 nM
HL-60 [9]
  Activity: 37.26%
[10]
  inhibition: Active
HL-60 [11]
  Activity: 13.04%
MV4-11 [12]
  Activity: 72.92%
[13]
  inhibition: Active
Kasumi 1
  GI50: 3.06 µM
[14]
  inhibition: Active
MV4-11 [15]
  Activity: 2.63%
MV4-11 [16]
  Activity: 38.33%
HL-60 [17]
  Activity: 48.8%
MV4-11 [18]
  Activity: 1.43%
BaF3 [19]
  GI50: > 10 µM
[20]
  inhibition: Dose-dependent-effect
MV4-11 [21]
  Activity: 1.1%
HL-60 [22]
  Activity: 37.68%
HL-60 [23]
  Activity: 13.94%
MV4-11 [24]
  Activity: 26.76%
MV4-11 [25]
  Activity: 89.29%
[26]
  inhibition: Active
HL-60 [27]
  Activity: 13.74%
MV4-11 [28]
  Activity: 93.13%
MV4-11 [29]
  Activity: 12.84%
HL-60 [30]
  Activity: 13.57%
HL-60 [31]
  Activity: 7.88%
[32]
  inhibition: Dose-dependent-effect
[33]
  inhibition: Active
MV4-11 [34]
  Activity: 8.07%
MV4-11 [35]
  Activity: 16.42%
MV4-11 [36]
  Activity: 1.23%
